Measured values reported in patent US20170014360A1, “METHODS OF TREATING CANCER USING RAD51 SMALL MOLECULE STIMULATORS” (The University of Chicago, priority 2014, published 2017).

Tests used:
[1] = tested on: PC3 prostate cancer cells; assay: Immunofluorescence microscopy to detect RAD51 and RPA foci in PC3 cells; assay type: cell-based, human
Method: (§1) FIGS. 6A-6B. […] FIG. 6A: Cells were grown on cover slips, incubated for 6 hours in media containing 60 μM RS-1. In the 8 Gy radiation control condition, cells were irradiated 6 hours before harvest. Cells were subsequently indirectly immunostained. […] FIG. 6B: Fifty randomly selected nuclei per treatment group were examined and discrete foci were quantified.
(§2) Some cancer cells that strongly overexpress RAD51 are known to develop spontaneous RAD51 nuclear complexes (Raderschall, et al., 2002). […] PC3 prostate cancer cells and normal primary human fibroblasts (MRC-5) were treated with RS-1 and examined by immunofluorescence microscopy. To determine whether RAD51-staining structures represented sites of DNA repair vs. non-damage-associated sites, nuclei were counterstained for RPA, which forms punctuate sub-nuclear foci specifically in response to DNA damage at sites that colocalize with damage-induced RAD51 foci (Golub, et al., 1998).
(§3) Cells were grown on coverslips and treated with RS-1 or radiation as indicated. They were subsequently fixed with 3% paraformaldahyde/3.4% sucrose, and permeabilized with a standard buffer (20 mM HEPES pH 7.4, 0.5% TritonX-100, 50 mM NaCl, 3 mM MgCl2, 300 mM sucrose). […] Images were recorded at a single representative focal plane using a CCD camera. For each experimental condition, 50 randomly selected nuclei were quantified using NIH Image software.

HT1080 cells = assay: Cell survival assay in HT1080 cells with doxycycline-repressible RAD51 transgene; assay type: cell-based, human; conditions: HT1080, RAD51 overexpression by doxycycline removal; 24 hours RS-1, 6 days drug-free
Method: HT1080 cells carrying a doxycycline-repressible RAD51 transgene were pre-treated with varying levels of doxycycline for 24 hours. […] In lower panel, cells were subsequently incubated for 24 hours in media containing varying concentrations of RS-1. Cells were then allowed to grow in drug-free media for an additional 6 days, and indicated doxycycline concentrations were maintained throughout the entire experiment. Average survival for each condition is normalized to the 0 μM RS-1 control of that condition.
(§4) Cells were plated into 96-well tissue culture plates at a density of 300 cells per well in the presence or absence of RS-1 for 24 hours at 37° C., 5% CO2. RS-1 was then removed, and cultures were allowed to grow for approximately one week to a 50-70% confluence. Average survival from six replicates was measured using CellGlo reagent (Promega), and error bars represent the standard error.
To confirm that RS-1 toxicity is directly related to RAD51 and translocases protein levels, these proteins were experimentally manipulated in cells. First, RAD51 was overexpressed in human fibrosarcoma HT1080 cells carrying a doxycycline-repressible RAD51 transgene.

[2] = biological target: T1, purified human RAD51 protein (Homo sapiens, UniProt Q06609); assay: Measurement of RAD51 binding to DNA by fluorescence polarization; conditions: 75 nM RAD51, various concentrations of RS-1, 100 nM DNA substrate
T1 sequence (Q06609 1-339): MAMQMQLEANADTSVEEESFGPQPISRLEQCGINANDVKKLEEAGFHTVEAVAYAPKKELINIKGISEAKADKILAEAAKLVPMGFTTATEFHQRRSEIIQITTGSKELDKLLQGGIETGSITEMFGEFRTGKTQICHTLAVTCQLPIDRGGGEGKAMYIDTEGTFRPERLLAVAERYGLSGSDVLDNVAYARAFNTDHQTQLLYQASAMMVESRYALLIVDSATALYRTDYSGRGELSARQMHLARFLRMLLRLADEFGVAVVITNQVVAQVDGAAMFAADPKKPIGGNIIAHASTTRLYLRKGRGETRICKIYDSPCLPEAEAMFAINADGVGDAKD
Method: Various concentrations of RS-1 were incubated with purified hRAD51 protein and a fluorescently tagged DNA substrate, consisting of either a ssDNA oligonucleotide (DHD162-CD-CF) or a dsDNA double hairpin (DHD162). Binding of RAD51 to DNA was measured as a function of fluorescence polarization of the tag, as described in the methods section.
Experiments were performed as previously described with some modifications (Budke, et al., 2012). Briefly, 75 nM purified human RAD51 protein was incubated with various concentrations of RS-1 in FP reaction buffer at 37° C. for 40 minutes. FP reaction buffer consisted of 20 mM Hepes pH 7.5, 10 mM MgCl2, 0.25 μM BSA, 2% glycerol, 30 mM NaCl, 4% DMSO, 0.1 mM tris(2-carboxyethyl)phosphine (TCEP), and 2 mM ATP. Fluorescently tagged DNA substrate was then added to a final concentration of 100 nM (nucleotide concentration for ssDNA or base pair concentration for dsDNA) and incubated at 37° C. for another 40 minutes. DNA substrates consisted of either an Alexa Fluor 488-labeled oligo-dT 45-mer, a fluorescein-labeled ssDNA oligonucleotide (DHD162-CD-CF), or a fluorescein-labeled dsDNA double hairpin (DHD162) which were previously described (Budke, et al., 2013). Fluorescence polarization measurements were obtained as previously described (Budke, et al., 2012). […]

[3] = tested on: normal primary human fibroblasts (MRC-5); assay: Immunofluorescence microscopy to detect RAD51 and RPA foci in MRC-5 cells; assay type: cell-based
Method: as §1, §2, §3

RAD51 [4] = biological target: T2, RAD51 (Homo sapiens, UniProt Q06609); conditions: cited from earlier work
T2 sequence (Q06609 1-339): T1 sequence (Q06609 1-339)

RAD51 [5] = biological target: T2, RAD51; conditions: cited from earlier work; remark: listed apart in the source
PC3 cells = assay: Cell survival assay in PC3 cells (with or without siRNA knockdown); assay type: cell-based, human
Method: PC3 cells were treated with various concentrations of RAD51 siRNA for 48 hours. […] Following RNAi, cells were allowed to grow for 7 days and assayed for viability in the absence of additional treatment. FIG. 3B: Following RNAi, cells were incubated for 24 hours in media containing varying concentrations of RS-1. Cells were then allowed to grow in drug-free media for an additional 6 days. Average survival for each condition is normalized to the 0 μM RS-1 control of that condition.
PC3 cells were treated with siRNA against RAD54L, RAD54B, both, or a non-silencing (NS) control for 48 hours. Following RNAi, cells were subsequently incubated for 24 hours in media containing varying concentrations of RS-1. Cells were then allowed to grow in RS-1-free media for an additional 6 days. Average survival for each condition is normalized to the 0 μM RS-1 control of that condition.
as §4
The RAD51 siRNA and the All-Stars negative control siRNA (NS) were ordered from Qiagen. RAD54B siRNAs were ordered from Invitrogen (Stealth). The RAD54L siRNA cocktail was ordered from Santa Cruz (sc-36362). All siRNAs were transfected using RNAiMax as per manufacturer's instructions (Invitrogen). Briefly, 2.0×10^5 cells were plated in 6 well dishes containing siRNA complexes to achieve the desired final concentration of siRNAs. The RAD54B and RAD54L siRNAs consisted of a cocktail of three independent siRNAs. The concentration of siRNAs transfected were 25 nM for RAD54L and 50 nM RAD54B. Co-depletion of RAD54L and RAD54B was performed by transfecting cells simultaneously with both siRNAs. At 48 hours post transfection, cells were harvested for cell survival assays and western blotting as described.

PC3 tumors = assay: PC3 xenograft tumor model in athymic nude mice
Method: FIG. 7. […] PC3 tumors were induced in the hind limbs of athymic nude mice. Mice were then randomized into two treatment groups. Starting on day 0, mice then received 5 daily intra-peritoneal injections with either RS-1 (110 mg/kg) or vehicle alone control. Median tumor volume is plotted, normalized to the starting tumor volume on day 0.
An in-vivo tumor model was used to further test the concept of RAD51 stimulation as a cancer treatment. Subcutaneous xenograft PC3 tumors were induced in the hind limbs of athymic nude mice, and the mice were subsequently treated with daily intra-peritoneal injections of RS-1 for five consecutive days. The daily dose administered to the mice was designed to yield an idealized concentration of 300 μM within the aqueous compartment of a mouse, based on an assumption of homogenous distribution across a 21 gm animal that is composed of 70% water.
Xenograft tumors were induced in the hind limbs of athymic nude mice by subcutaneous injection of 1×10^6 PC3 cells, and tumors were allowed to grow to an average volume of about 50 mm^3. Mice were then were randomized into treatment groups, each consisting of 7 mice. […] Tumor measurements were taken 3 times per week with a caliper and expressed as tumor volume, which was approximated from the product of width×length×height×0.5.

[6] = 110 mg/kg intra-peritoneal, 5 daily injections

O=C(Nc1ccc(Br)cc1)c1ccc(Br)c(S(=O)(=O)NCc2ccccc2)c1 [RS-1, 3-Benzylsulfamoyl-4-bromo-N-(4-bromo-phenyl)-benzamide]
nuclei with >10 RAD51 foci/nucleus ([1]; PC3, 60 μM RS-1, 6 hours, no DNA damage): 43% | cells with >10 RPA foci/nucleus ([1]; PC3, after RS-1 treatment): Neither cell type exhibited >10 RPA foci/nucleus in any cells | sensitivity to RS-1 of cells with the highest RAD51 expression levels (HT1080 cells): significantly more sensitive to RS-1 | binding of RAD51 to ssDNA and dsDNA [2]: stimulates the binding of RAD51 to both ssDNA and dsDNA | nuclei with >10 RAD51 foci/nucleus ([3]; MRC-5, 60 μM RS-1, 6 hours): no MRCS nuclei exhibited >10 RAD51 foci/nucleus | cells with >10 RPA foci/nucleus ([3]; MRC-5, after RS-1 treatment): Neither cell type exhibited >10 RPA foci/nucleus in any cells | protection of RAD51 filaments from high salt (RAD51 [4]; buffers containing high salt concentration): protects these filaments from buffers containing high salt concentration | RAD51 filament formation (further study) (RAD51 [4]): enhances RAD51 filament formation | DNA strand invasion activity of RAD51 (RAD51 [5]): capable of stimulating DNA strand invasion activity of RAD51 | effect of RAD51 depletion on RS-1 induced toxicity (PC3 cells; PC3, RAD51 siRNA 48 hours, then 24 hours RS-1): significant protection from RS-1 induced toxicity | LD90 (PC3 cells; PC3, relative to panel of cell lines): low LD90 | effect of RAD54B or RAD54L knockdown on RS-1 toxicity (PC3 cells; PC3, siRNA 48 hours, then 24 hours RS-1): significantly sensitized PC3 cells to RS-1 toxicity | anti-tumor response relative to vehicle-alone control (PC3 tumors; [6]): significant anti-tumor responses | toxic deaths (PC3 tumors; [6]): no toxic deaths observed | delay in tumor regrowth relative to vehicle-alone control (PC3 tumors; 110 mg/kg intra-peritoneal, 5 daily injections, remaining tumors): > 2 week | tumors that completely disappeared after treatment and never regrew (PC3 tumors; 110 mg/kg intra-peritoneal, 5 daily injections, two month observation, 3 of 7): 43% | transient weight loss (PC3 tumors; during the treatment week, regained post-treatment): about 10%
